Assay [1] relates to RSV A2. The experiment in a line: Inhibition of virus infectivity in vivo, lung virus titers in BALB/c mice. Particulars: for inhibition of RSV infection in vivo (in words): BALB/c mouse model; for reduced infectivity, fold: co-administration with RSV (Table 16). As to the method:
Inhibition of virus infectivity in vivo. […] All administrations were intranasal (0.05 ml) and performed under injected anesthesia (60 mg ketamine/kg and 2.5 mg xylazine/kg (The Butler Co.; Dublin Ohio)). Four days later the lungs were removed, homogenized, clarified by low speed centrifugation, snap frozen, and stored at −70° C. until plaque assays were performed using HEp-2 cell monolayers (Hancock et al. 1996). All animals were housed in a facility accredited by the American Association for Accreditation of Laboratory Animal Care.
(§1) Plaque assay. Virus plaques were visualized as previously described (Hancock et al. 1996) using anti-F protein (L4) mAb (Paradiso et al., 1991; Walsh and Hruska, 1983). Thereafter, cells were rinsed with blotto blocking agent (PBS, 5% powdered milk) and incubated with horseradish peroxidase-conjugated goat anti-mouse IgG (Kirkegaard and Perry Laboratories, Inc.; Gaithersburg, Md.). Bound antibody was detected using 0.05% 4-chloro-1-naphtol containing 0.1% H2O2 in PBS. After enumeration of plaques, the mean percent infectivity (±1 standard deviation of triplicate wells) was calculated relative to monolayers exposed to virus in culture medium alone without chemokine or anti-chemokine receptor antibody.

Assay [2] relates to RSV A2. Description: Inhibition of RSV infectivity in vitro, plaque assay on HEp-2 cell monolayers. The format is cell-based, respiratory syncytial virus (RSV). Particulars: for effect on RSV infectivity (in words): prior exposure (1 hour) of HEp-2 cells to recombinant chemokine, up to 10 μg/ml. As to the method:
Inhibition of virus infectivity in vitro. HEp-2 cell monolayers were grown in 96-well tissue culture plates (Falcon, Becton Dickson and Co.; Franklin Lakes, N.J.) with complete medium. The monolayers were pre-treated for 1 hour at 4° C. or 37° C. in triplicate wells with the indicated amounts of recombinant chemokine or anti-chemokine receptor antibody. After removal of chemokine or antibody, the monolayers were infected 1 hour at the same temperature with the denoted wild type or mutant RSV strain and then overlaid with 2% Sephadex (Amersham Biosciences; Piscataway, N.J.). Anti-viral activity was also assessed 1 hour after the cells were infected, or following simultaneous exposure of the monolayers to virus in a 1:1 mixture with the indicated doses of chemokines or CCL5 peptides. The inhibitory properties of the anti-chemokine receptor antibodies were tested alone or in combination at doses ranging from 5 to 100 μg/ml culture medium.
as §1

In assay [3] the test system is HEp-2 cells. Description: Binding of biotinylated CCL5 peptides to HEp-2 cell monolayers (ELISA). Details: species or system human. The note with it: FIG. 3, viable HEp-2 cells at 4° C. As to the method:
Interaction of CCL5 peptides with HEp-2 cells. An ELISA was used to assess the relative binding of synthetic peptides to HEp-2 cell monolayers. In brief, 96-well plates (Falcon) were seeded with 3×10^4 HEp-2 cells per well in 0.2 ml of complete medium. After overnight incubation (37° C., 5% CO2), the monolayers were cooled on ice for approximately 15 minutes. The biotinylated peptides were added to duplicate wells in ascending doses from 0.49 μg to 500 μg per ml DMEM (supplemented with 1% FBS, 2% penicillin/streptomycin, and 2 mM L-glutamine) and incubated at 4° C. for 1 hour. The monolayers were then fixed (20 minutes at RT) with 80% methanol (J T Baker; Phillipsburg, N.J.). […] Thereafter, the monolayers were incubated (1 hour at RT) with streptavidin-HRP (Zymed; San Francisco, Calif.). The wells were developed with TMB One-Step Substrate Solution (DAKO; Carpinteria, Calif.). Optical density was determined (450 nm, reference at 550 nm) with a Molecular Devices Versamax microplate reader (Sunnyvale, Calif.).
On the technique in general: In an ELISA, binding on a coated surface is turned into a signal by an enzyme label.

Where [4] appears, read: all experiments at the 500 μg/dose.
The mark [5] stands for this setting: Table 16 Exp. 1, 500 μg/dose, simultaneously admixed with RSV A2, intranasal, lungs four days later.
The mark [6] stands for this setting: Table 10, 1 μg/ml, exposed 1 hour before infection, plaques after 3 days.
Where [7] appears, read: Table 10, 5 μg/ml, exposed 1 hour before infection, plaques after 3 days.
Setting [8] is: Table 10, 10 μg/ml, exposed 1 hour before infection, plaques after 3 days, relative to control wells (100%).
Where [9] appears, read: Table 16 Exp. 1, 250 μg/dose, simultaneously admixed with RSV A2, four days.
[10] abbreviates: Table 17, 500 μg, Simultaneous with RSV A2, four days.
The mark [11] stands for this setting: Table 11, 1 μg/ml, exposed 1 hour before infection, plaques after 3 days.
[12] abbreviates: Table 11, 5 μg/ml, exposed 1 hour before infection, plaques after 3 days.
Where [13] appears, read: Table 11, 10 μg/ml, exposed 1 hour before infection, plaques after 3 days.
The mark [14] stands for this setting: Table 12, 10 μg/ml, 1 hour after removal of RSV A2 (POST).
[15] abbreviates: Table 12, 10 μg/ml, 1 hour prior to infection (PRE).

This is an account of results in patent publication US20070161550A1, “Antiviral compositions which inhibit paramyxovirus infection” (priority 2003, published 2007).

For the molecule `NC(=O)CN(CC(N)=O)S(=O)(=O)c1cccc(Nc2nc(Nc3cccc(S(=O)(=O)N(CC(N)=O)CC(N)=O)c3)nc(Nc3ccc(-c4ccc(Nc5nc(Nc6cccc(S(=O)(=O)N(CC(N)=O)CC(N)=O)c6)nc(Nc6cccc(S(=O)(=O)N(CC(N)=O)CC(N)=O)c6)n5)cc4S(=O)(=O)O)c(S(=O)(=O)O)c3)n2)c1` [RFI-641, reference compound], the “inhibition of RSV infection in vivo (in words)” value in assay [1] is “inhibitory against RSV infection”. Moreover, the “RSV/Gram Lung Tissue (log10)” value in assay [1] (Table 16 Exp. 1, 25 μg/dose, simultaneously admixed with RSV A2, four days) turned out to be 2.7 ± 0.2 log10; in assay [1] (Table 16 Exp. 2, 25 μg/dose, simultaneously admixed with RSV A2, four days), 2.7 ± 0.3 log10.
“AHIKEYFYTSGKCSN (listed as Homo sapiens) [Peptide 4, CCL5 amino acids 22-36]”: the “average reduction in virus load” value in assay [1] (setting [4]) came to 1.2 log10.
Turning to “CANPEKKWVREYINS (listed as Homo sapiens) [Peptide 8, CCL5 amino acids 50-64]”, the “RSV/Gram Lung Tissue (log10)” value in assay [1] (setting [5]) came out at 3.6 ± 0.03 log10. For the same molecule, in assay [1] (setting [4]), the “average reduction in virus load” value was found to be 1.0 log10. Further, in assay [1], the “reduced infectivity, fold” value is listed as “approximately 10 fold”.
For “CCL11: recombinant human chemokine CCL11 (eotaxin)”, the “Percent Infectivity” value in assay [2] (setting [6]) was found to be 94.4 ± 4.8%; in assay [2] (setting [7]), 93.1 ± 12.7%; in assay [2] (setting [8]) it was 94.4 ± 4.8%. For the same molecule, the “effect on RSV infectivity (in words)” value in assay [2] is recorded as “did not impair RSV infectivity”.
“EKKWVREYINSLEMS (listed as Homo sapiens) [Peptide 9, CCL5 amino acids 54-68]”: the “RSV/Gram Lung Tissue (log10)” value in assay [1] (setting [9]) turned out to be 3.7 ± 0.1 log10. The “average reduction in virus load” value in assay [1] (setting [4]) is 1.4 log10. The “reduced infectivity, fold” value in assay [1] is given as “approximately 10 fold”.
As for “PAVVFVTRKNRQVC (listed as Homo sapiens) [Peptide 6, CCL5 amino acids 37-50]”, the “average reduction in virus load” value in assay [1] (setting [4]) is 0.5 log10.
Regarding “SPYSSDTTPCCFAYI (listed as Homo sapiens) [Peptide 1, CCL5 amino acids 1-15]”, in assay [3], the “binding to the epithelial cell monolayer (in words)” value is given as “readily bound to the epithelial cell monolayer”. For the same molecule, the “average reduction in virus load” value in assay [1] (300 μg or more, five experiments) is 2.4 log10. The “inhibition of RSV infection in vivo (in words)” value in assay [1] is “most inhibitory in vivo”. Moreover, the “RSV/Gram Lung Tissue (log10)” value in assay [1] (Table 16 Exp. 1, 125 μg/dose, simultaneously admixed with RSV A2, four days) is 4.6 ± 0.2 log10; in assay [1] (setting [9]), 4.3 ± 0.2 log10; in assay [1] (setting [5]), 1.8 ± 0.1 log10; in assay [1] (Table 16 Exp. 2, 300 μg/dose, simultaneously admixed with RSV A2, four days), 4.0 ± 0.1 log10; in assay [1] (Table 16 Exp. 2, 400 μg/dose, simultaneously admixed with RSV A2, four days), 3.8 ± 0.1 log10; in assay [1] (Table 16 Exp. 2, 500 μg/dose, simultaneously admixed with RSV A2, four days) it was 3.1 ± 0.1 log10. Besides, the “RSV/Gram Lung Tissue (log10)” value in assay [1] (Table 17, 500 μg, 1 hour after infection (Post), four days) was found to be 5.3 ± 0.2 log10; in assay [1] (Table 17, 500 μg, 1 hour before infection (Pre), four days), 3.5 ± 0.6 log10; in assay [1] (setting [10]), 1.9 ± 0.2 log10. In addition, the “virus load diminished, fold” value in assay [1] (administered 1 hour before infection) is reported as “more than 50 fold”.
For the molecule “TPCCFAYIARPLPRA (listed as Homo sapiens) [Peptide 2, CCL5 amino acids 8-22]”, the “average reduction in virus load” value in assay [1] (setting [4]) stood at 0.9 log10.
On to “TRKNRQVCANPEKKW (listed as Homo sapiens) [Peptide 7, CCL5 amino acids 43-57]”, for which the “RSV/Gram Lung Tissue (log10)” value in assay [1] (setting [5]) stood at 4.6 ± 0.1 log10; in assay [1] (setting [10]), 3.8 ± 0.1 log10. For the same molecule, in assay [1] (setting [4]), the “average reduction in virus load” value is on record as 1.1 log10.

B1: CCL4: recombinant human chemokine CCL4 (MIP-1β) (protein, UniProt P13236 24-92, looked up)
C-C motif chemokine 4: APMGSDPPTACCFSYTARKLPRNFVVDYYETSSLCSQPAVVFQTKRSKQVCADPSESWVQEYVYDLELN
In the case of B1, the results for the “Percent Infectivity” value in assay [2] (setting [11]), in assay [2] (setting [12]) and in assay [2] (setting [13]) were 104.0 ± 4.0%, 99.0 ± 9.0% and 98.0 ± 5.0%, respectively. Besides, the “effect on RSV infectivity (in words)” value in assay [2] is recorded as “did not impair infectivity”.

B2: CCL3: recombinant human chemokine CCL3 (MIP-1α) (protein, UniProt P10147 24-92, looked up)
C-C motif chemokine 3: SLAADTPTACCFSYTSRQIPQNFIADYFETSSQCSKPGVIFLTKRSRQVCADPSEEWVQKYVSDLELSA
B2: the “Percent Infectivity” value in assay [2] (setting [6]) came to 95.8 ± 11.0%; in assay [2] (setting [7]) it was 97.2 ± 8.7%; in assay [2] (setting [8]), 86.1 ± 2.4%; in assay [2] (setting [11]) it was 103.0 ± 3.0%; in assay [2] (setting [12]) it was 98.0 ± 1.0%; in assay [2] (setting [13]), 91.0 ± 5.0%. The “Percent Infectivity” value was determined as 104 ± 7% in assay [2] (setting [14]) and 91 ± 10% in assay [2] (setting [15]). Also, the “effect on RSV infectivity (in words)” value in assay [2] is reported as “did not impair infectivity”.

B3: CCL15: recombinant human chemokine CCL15 (MIP-1δ) (protein, UniProt Q16663 22-113, looked up)
C-C motif chemokine 15: QFTNDAETELMMSKLPLENPVVLNSFHFAADCCTSYISQSIPCSLMKSYFETSSECSKPGVIFLTKKGRQVCAKPSGPGVQDCMKKLKPYSI
In the case of B3, the “Percent Infectivity” value in assay [2] (setting [14]) was determined as 93 ± 4%; in assay [2] (setting [15]), 97 ± 8%. The “effect on RSV infectivity (in words)” value in assay [2] is “did not impair RSV infectivity”.

B4: CCL8: recombinant human chemokine CCL8 (MCP-2) (protein, UniProt P80075 24-99, looked up)
C-C motif chemokine 8: QPDSVSIPITCCFNVINRKIPIQRLESYTRITNIQCPKEAVIFKTKRGKEVCADPKERWVRDSMKHLDQIFQNLKP
For the molecule B4, the “Percent Infectivity” value was 88.9 ± 6.4% in assay [2] (setting [6]), 100.0 ± 0.0% in assay [2] (setting [7]) and 94.4 ± 10.5% in assay [2] (setting [8]). Also, in assay [2], the “effect on RSV infectivity (in words)” value is given as “did not impair RSV infectivity”.
